How the values were obtained:
[1] = test system: gp100 (native or modified); assay type: in vivo, A2Kb transgenic mice; conditions: priming with 20.0 μg toxoid i.m., then ALVAC gp100 recombinant given as a mixture with the toxoid; FIGS. 7 and 8
CEA = assay type: in vivo, A2Kb transgenic mice; conditions: priming with 20.0 μg toxoid i.m., then ALVAC CEA recombinant given as a mixture with the toxoid; FIG. 6
modified gp100 = test system: modified gp100; parameters: species or system A2Kb transgenic mice; conditions: mouse, in vivo

| Substance | immune response to the modified gp100 and gp100 antigens (reactive T cells, IFN gamma ELISPOT) [1] | immune response to the CEA antigen (reactive T cells, IFN gamma ELISPOT) (CEA) | immune response to the immunogen modified gp100 (gp100-specific CTL response) (modified gp100) |
| --- | --- | --- | --- |
| diphtheria toxoid | clearly enhanced | clearly enhanced | – |
| tetanus toxoid | clearly enhanced | clearly enhanced | clearly enhanced |

Reference: patent US20040009185A1, “Enhancing the immune response to an antigen by presensitzing with an inducing agent prior to immunizing with the agent and the antigen” (priority 2003, published 2004)
